Results published in patent US9873883B2, “Glyphosate resistant plants and associated methods” (Dow AgroSciences LLC, priority 2012, dated 2018).

Legend:
[1] = test system: Arabidopsis transformed with TraP5 v2::dgt-14 (pDAB105525); assay: Postemergence glyphosate tolerance, visual injury; type: in vivo, Arabidopsis thaliana; conditions: 2 weeks after application
[2] = test system: Arabidopsis with dgt-1 (pDAB3759), T2 segregating population; assay: Postemergence glyphosate tolerance, visual injury; type: in vivo, Arabidopsis thaliana; conditions: 2 weeks after application
Source text: (§1) Transgenic T1 Arabidopsis plants containing the dgt-14 transgene were sprayed with differing rates of glyphosate. A distribution of varying concentrations of glyphosate rates, including elevated rates, were applied in this study to determine the relative levels of resistance (105, 420, 1,680 or 3,360 g ae/ha). The typical 1× field usage rate of glyphosate is 1,120 g ae/ha. The T1 Arabidopsis plants that were used in this study were variable in copy number for the dgt-14 transgene. The low copy dgt-14 T1 Arabidopsis plants were identified using the molecular confirmation assays described above, and self-pollinated and used to produce T2 plants.
(§2) The Arabidopsis T1 transformants were first selected from the background of untransformed seed using a glufosinate selection scheme. Three flats or 30,000 seed were analyzed for each T1 construct. The T1 plants selected above were molecularly characterized and the plants were subsequently transplanted to individual pots and sprayed with various rates of commercial glyphosate as previously described. The dose response of these plants is presented in terms of % visual injury 2 weeks after treatment (WAT). […] An arithmetic mean and standard deviation is presented for each construct used for Arabidopsis transformation. The range in individual response is also indicated in the last column for each rate and transformation. Wildtype, non-transformed Arabidopsis (c.v. Columbia) served as a glyphosate sensitive control.
(§3) Selected T1 Arabidopsis plants which were identified to contain low-copy numbers of transgene insertions (1-3 copies) were self-fertilized to produce a second generation for additional assessment of glyphosate tolerance. […] In the T2 generation hemizygous and homozygous plants were available for testing for each event and therefore were included for each rate of glyphosate tested. Hemizygous plants contain two different alleles at a locus as compared to homozygous plants which contain the same two alleles at a locus. The copy number and ploidy levels of the T2 plants were confirmed using the molecular analysis protocols previously described. Likewise, glyphosate was applied using the methods and rates as previously described. The dose response of the plants is presented in terms of % visual injury 2 weeks after treatment (WAT). […] An arithmetic mean and standard deviation are presented for each construct used for Arabidopsis transformation. The range in individual response is also indicated in the last column for each rate and transformation. Wildtype, non-transformed Arabidopsis (cv. Columbia) served as a glyphosate sensitive control. In addition, plants comprising a glyphosate herbicide resistance gene, dgt-1 (as described in U.S. patent Ser. No. 12/558,351, incorporated herein by reference in its entirety) were included as a positive control.
(§4) Randomly selected T2 Arabidopsis plants which were identified to contain low-copy numbers of transgene insertions (1-3 copies) were self-fertilized to produce a third generation for additional assessment of glyphosate tolerance. Arabidopsis seed from the third generation (T3) were planted and evaluated for glyphosate tolerance using the same protocols as previously described. […] These Events were assayed via LC-MS-MS to confirm that the plants expressed the DGT-14 protein. […] Exemplary resistant T3 Events comprised dgt-14 linked with TraP8 v2 (pDAB105526), TraP9 v2 (pDAB105527), TraP12 v2 (pDAB105528) and TraP13 v2 (pDAB105529).

[3] = test system: Arabidopsis transformed with TraP9 v2::dgt-14 (pDAB105527); assay: Postemergence glyphosate tolerance, visual injury; type: in vivo, Arabidopsis thaliana; conditions: for Visual % injury (Ave): 2 weeks after application
Source text: as §1, §2, §3, §4

[4] = test system: Arabidopsis transformed with TraP8 v2::dgt-14 (pDAB105526); assay: Postemergence glyphosate tolerance, visual injury; type: in vivo, Arabidopsis thaliana; conditions: for Visual % injury (Ave): 2 weeks after application
Source text: as §1, §2, §3, §4

[5] = test system: T4 Arabidopsis plants containing dgt-14 spiked into wildtype; assay: dgt-14 as a selectable marker with glyphosate selection; type: in vivo, Arabidopsis thaliana; conditions: applied 7 and 11 DAP, scored 17 DAP
Procedure: The use of dgt-14 as a selectable marker for glyphosate selection agent is tested with the Arabidopsis transformed plants described above. Approximately 50 T4 generation Arabidopsis seed (homozygous for dgt-14) are spiked into approximately 5,000 wildtype (sensitive to glyphosate) seed. The seeds are germinated and plantlets are sprayed with a selecting dose of glyphosate. Several treatments of glyphosate are compared; each tray of plants receives either one or two application timings of glyphosate in one of the following treatment schemes: 7 DAP (days after planting), 11 DAP, or 7 followed by 11 DAP. Since all plants also contain a glufosinate resistance gene in the same transformation vector, dgt-14 containing plants selected with glyphosate can be directly compared to DSM-2 or pat containing control plants selected with glufosinate.
Glyphosate treatments are applied with a DeVilbiss spray tip as previously described. Transgenic plants containing dgt-14 are identified as “resistant” or “sensitive” 17 DAP. […] Sensitive and resistant plants are counted and the number of glyphosate tolerant plants is found to correlate with the original number of transgenic seed containing the dgt-14 transgene which are planted.

[6] = test system: Arabidopsis transformed with TraP12 v2::dgt-14 (pDAB105528); assay: Postemergence glyphosate tolerance, visual injury; type: in vivo, Arabidopsis thaliana; conditions: 2 weeks after application
[7] = test system: dgt-14 rice plants; assay: Glyphosate tolerance of dgt-14 rice; type: in vivo, Oryza sativa; conditions: sprayed
Source text: Putatively transgenic rice plantlets at the 3-5 leaf stage are sprayed with a solution of glyphosate. Once sprayed, plantlets are allowed to dry for one hour before being moved out of the fume hood. Rating for sensitivity or resistance to glyphosate is completed from 10-14 days after treatment (DAT). Glyphosate resistant rice plantlets which contain a fully integrated copy of the dgt-14 plant are identified. Rice plants containing the dgt-14 transgene are obtained. The dgt-14 rice plants are sprayed with varying concentrations of glyphosate and shown to provide tolerance to glyphosate at concentrations up to 3360 g ae/ha.

[8] = T2, all concentrations of glyphosate tested
[9] = T3, all concentrations of glyphosate tested

## O=C(O)CNCP(=O)(O)O [glyphosate, N-(phosphonomethyl)glycine]
[1]; T2, 840 g ae/ha
  Visual % injury (Ave): 90.0%
[1]; T3, 840 g ae/ha
  Visual % injury (Ave): 97.5%
[2]; T1 study, 105 g ae/ha
  Visual % injury (Ave): 40.0%
[2]; T1 study, 420 g ae/ha
  Visual % injury (Ave): 30.0%
[2]; T1 study, 1680 g ae/ha
  Visual % injury (Ave): 55.0%
[2]; T1 study, 3360 g ae/ha
  Visual % injury (Ave): 57.5%
[2]; T2 study, 420 g ae/ha
  Visual % injury (Ave): 40.0%
[2]; T2 study, 840 g ae/ha
  Visual % injury (Ave): 47.5%
[2]; T2 study, 1680 g ae/ha
  Visual % injury (Ave): 41.3%
[2]; T2 study, 3360 g ae/ha
  Visual % injury (Ave): 35.0%
[2]; T3 study, 420 g ae/ha
  Visual % injury (Ave): 42.5%
[2]; T3 study, 840 g ae/ha
  Visual % injury (Ave): 40.0%
[2]; T3 study, 1680 g ae/ha
  Visual % injury (Ave): 47.5%
[2]; T3 study, 3360 g ae/ha
  Visual % injury (Ave): 77.5%
[3]; T1, 105 g ae/ha
  Visual % injury (Ave): 23.0%
[3]; T1, 420 g ae/ha
  Visual % injury (Ave): 37.5%
[3]; T1, 1680 g ae/ha
  Visual % injury (Ave): 48.8%
[3]; T1, 3360 g ae/ha
  Visual % injury (Ave): 63.8%
[3]; T2, 420 g ae/ha
  Visual % injury (Ave): 0.0%
[3]; T2, 1680 g ae/ha
  Visual % injury (Ave): 1.8%
[3]; T2, 3360 g ae/ha
  Visual % injury (Ave): 17.5%
[3]; [8]
  injury range: less than 20%
[3]; T3, 420 g ae/ha
  Visual % injury (Ave): 0.0%
[3]; T3, 1680 g ae/ha
  Visual % injury (Ave): 0.0%
[3]; T3, 3360 g ae/ha
  Visual % injury (Ave): 4.3%
[3]; [9]
  injury range: less than 20%
[4]; T1, 105 g ae/ha
  Visual % injury (Ave): 40.0%
[4]; T1, 420 g ae/ha
  Visual % injury (Ave): 23.8%
[4]; T1, 1680 g ae/ha
  Visual % injury (Ave): 66.3%
[4]; T1, 3360 g ae/ha
  Visual % injury (Ave): 26.5%
[4]; T2, 420 g ae/ha
  Visual % injury (Ave): 0.5%
[4]; T2, 840 g ae/ha
  Visual % injury (Ave): 0.0%
[4]; T2, 1680 g ae/ha
  Visual % injury (Ave): 2.5%
[4]; T2, 3360 g ae/ha
  Visual % injury (Ave): 5.0%
[4]; [8]
  injury range: less than 20%
[4]; T3, 420 g ae/ha
  Visual % injury (Ave): 0.0%
[4]; T3, 840 g ae/ha
  Visual % injury (Ave): 1.3%
[4]; T3, 1680 g ae/ha
  Visual % injury (Ave): 0.0%
[4]; T3, 3360 g ae/ha
  Visual % injury (Ave): 4.0%
[4]; [9]
  injury range: less than 20%
[5]
  effective selection for transgenic plants: 26.25-1680 g ae/ha
[6]; T2, 840 g ae/ha
  Visual % injury (Ave): 2.5%
[6]; T3, 840 g ae/ha
  Visual % injury (Ave): 0.0%
[7]
  tolerance to glyphosate at concentrations up to: up to 3360 g ae/ha
